pIC50: −log10 of the molar value. Like-named read-outs stand apart in the source and are kept apart here.
What was measured:
[1] = biological target: Recombinant His-tagged human PARG protein (Homo sapiens (Human), UniProt Q86W56); test: PARG enzymatic assay (TFMU-ADPr fluorescence); assay type: biochemical; conditions: 1 nM enzyme, 200 μM TFMU-ADPr, read after 30 minutes
Procedure: Inhibition of PARG enzymatic activity by compounds was determined as follows: Recombinant His-tagged human PARG protein expressed in Sf21 insect cells (Adipogen AG, #40T-0022) was aliquoted and stored at −80° C. until use. The artificial enzyme substrate 4-(trifluoromethyl)umbelliferone (TFMU)-ADPr was prepared essentially as described (Drown B S et al, Cell Chemical Biology 2018) and stored at −20° C. as 10 mM stock solutions in DMSO (dimethyl sulfoxide) until use. For reactions, typical final concentration of the enzyme was 1 nM and of the TFMU-ADPr 200 μM. Reactions were carried out in black 384-well low volume round bottom assay plates (Corning, #4514) in a final volume of 10 μL. To this end, PARG was diluted to 1.67 nM in reaction buffer (50 mM K2HPO4, 50 mM KCl, 10 mM β-mercaptoethanol, pH 7.4) and 6 μL were dispensed per assay well using a multichannel pipette. Then compound was dispensed into each well using an Echo dispenser (BeckmanCoulter) to yield the pre-specified final concentration of the range of concentrations to be tested (typically 8-point serial concentrations ranging from either from 0.01 to 10 μM, or from 0.001 to 1 μM, or from 0.0001 to 0.1 μM), and being volume-corrected with 100% DMSO (0.5% final DMSO concentration in reaction mixtures). Plates were mixed, and after 15 minutes 4 μL TFMU-ADPr was added into each well using a multichannel pipette followed by brief mixing. Fluorescence intensity signals were then measured after 30 minutes on an EnVision microplate reader (PerkinElmer) using 380/10 nm and 535/25 nm filters for the excitation and emission, respectively (gain: 150). The assay window was set using DMSO control (top) and a control containing no PARG enzyme (bottom). Delta values were plotted as concentration-response curves fitted to a sigmoidal 4-parameter logistic model to calculate IC50 values (Scigilian Analyze).

[2] = biological target: human PARG (PARG-NanoLuc fusion in HEK293T cells) (Homo sapiens (Human), UniProt Q86W56); test: PARG NanoBRET-based cellular target engagement assay; assay type: cell-based; conditions: HEK293T cells transfected with PARG-NanoLuc, NanoBRET probe 0.89 μM, 2 hours; read-out: PARG TE IC50
Procedure: PARG Nano-luciferase construct: The PARG-NanoLuc® fusion vector was generated by Promega, by inserting the full length human PARG cDNA sequence encoding the 976 amino acid protein (Gene ID: 8505, UniProt: Q86W56) into the pNLF1-C [CMV/Hygro] vector (C-terminal fusions with NanoLuc® enzyme).
PARG target engagement tracer synthesis: The NanoBRET tracer for PARG was prepared following a previously reported general tracer synthesis procedure.
PARG Probe Displacement Assay Using NanoBRET: HEK293T (DSMZ #ACC 635) cells transiently transfected with the PARG-NanoLuc fusion construct were resuspended in phenol red-free OptiMEM (Gibco #11058-021) to a concentration of 2.4×10^5 cells/mL. 9 μL per well were then added to a white 384-well low volume microplate (Greiner #784080) and incubated for 24 hours under standard growth conditions.
Then compound was dispensed into each well using an Echo dispenser (BeckmanCoulter) to yield the pre-specified final concentration of the range of concentrations to be tested (typically 8-point serial concentrations ranging from either from 0.01 to 10 μM, or from 0.001 to 1 μM, or from 0.0001 to 0.1 μM), and being volume-corrected with 100% DMSO (0.5% final DMSO concentration in reaction mixtures).
After mixing and an incubation at room temperature for 15 min 1 μl of the NanoBRET probe (at 0.89 μM final concentration) was added to the microplate using a multichannel pipette. The plate was mixed and incubated in a 5% CO2 environment at 37° C. for 2 hours, and then 5 μL per well of a solution consisting of a 1:31.25 dilution of Nano-Glo substrate (Promega) and a 1:500 dilution of NanoLuc extracellular inhibitor (Promega) in phenol red-free OptiMEM was added to each well followed by another mixing step. Filtered luminescence was measured on an EnVision plate reader (PerkinElmer) equipped with a 460 nm filter (donor) and a 645 nm filter (acceptor). BRET ratios were plotted as concentration-response curves fitted to a sigmoidal 4-parameter logistic model to calculate IC50 values (Scigilian Analyze).

NCI-H1650 = test: Modified cell proliferation assay (CellTiter-Glo), NCI-H1650; assay type: cell-based; conditions: modified protocol, 384-well, 300 cells per well, 120 h, highest concentration tested 30000 nM, read-out: NCI-H1650 GI50 (high PARG dependency)
Procedure: The cell proliferation assay protocol was modified and used for RMUG-S for Examples 12-44, and subsequently used to test Examples 1-44 in the NCI-H1650 cell line.
NCI-H1650 (ATCC, #CRL-5883) or RMUG-S were seeded on day 1 at 300 cells per well in a 384-well plate (Greiner, #781080) that assure assay linearity and optimal signal intensity in 25 μL of RPMI1640 media (Pan Biotech, #P04-22100) containing 10% FCS (Capricorn, #FBS-11A; Lot. CP22-5141) and 1% Glutamine (Pan Biotech, #P04-80100). After incubation for 24 h in humidified chambers at 37° C./5% CO2, compounds/DMSO were dispensed at different concentrations using an Echo 520 (Beckman Coulter). Cells were further incubated for 120 h at 37° C. and 5% CO2. Cells treated with the compound vehicle DMSO were used as negative controls and cells treated with 10 μM Staurosporine (LC Laboratories, #S-9300) served as positive controls.
At day 6 the CellTiter Glo Reagent was prepared according to the instructions of the kit (Promega Inc.): Reagent was mixed 1:1 with cell culture medium. Thereon, mixture and assay plates were equilibrated at room temperature for 20 min. Equal volumes of the reagent-medium-mixture were added to the volume of culture medium present in each well. The plates were mixed at […] for 2 minutes on an orbital shaker (Timix5, Edmund Buehler GmbH). The microplates were then incubated at room temperature for 10 minutes for stabilization of the luminescent signal. Following incubation, the luminescence was recorded on a Victor X5 microplate reader (Perkin Elmer) using a 200 ms integration time. The data was then analyzed with Excel using the XLFIT Plugin (dose response Fit 205) for determination of the concentration necessary for half-maximal inhibition (i.e. the inflection point of the fitted curve).
As quality control the Z′-factor was calculated from 16 positive and negative control values. Only assay results showing a Z′-factor≥0.5 were used for further analysis.

Sequence of human PARG (PARG-NanoLuc fusion in HEK293T cells) (Q86W56 whole entry, the tested form may be a part): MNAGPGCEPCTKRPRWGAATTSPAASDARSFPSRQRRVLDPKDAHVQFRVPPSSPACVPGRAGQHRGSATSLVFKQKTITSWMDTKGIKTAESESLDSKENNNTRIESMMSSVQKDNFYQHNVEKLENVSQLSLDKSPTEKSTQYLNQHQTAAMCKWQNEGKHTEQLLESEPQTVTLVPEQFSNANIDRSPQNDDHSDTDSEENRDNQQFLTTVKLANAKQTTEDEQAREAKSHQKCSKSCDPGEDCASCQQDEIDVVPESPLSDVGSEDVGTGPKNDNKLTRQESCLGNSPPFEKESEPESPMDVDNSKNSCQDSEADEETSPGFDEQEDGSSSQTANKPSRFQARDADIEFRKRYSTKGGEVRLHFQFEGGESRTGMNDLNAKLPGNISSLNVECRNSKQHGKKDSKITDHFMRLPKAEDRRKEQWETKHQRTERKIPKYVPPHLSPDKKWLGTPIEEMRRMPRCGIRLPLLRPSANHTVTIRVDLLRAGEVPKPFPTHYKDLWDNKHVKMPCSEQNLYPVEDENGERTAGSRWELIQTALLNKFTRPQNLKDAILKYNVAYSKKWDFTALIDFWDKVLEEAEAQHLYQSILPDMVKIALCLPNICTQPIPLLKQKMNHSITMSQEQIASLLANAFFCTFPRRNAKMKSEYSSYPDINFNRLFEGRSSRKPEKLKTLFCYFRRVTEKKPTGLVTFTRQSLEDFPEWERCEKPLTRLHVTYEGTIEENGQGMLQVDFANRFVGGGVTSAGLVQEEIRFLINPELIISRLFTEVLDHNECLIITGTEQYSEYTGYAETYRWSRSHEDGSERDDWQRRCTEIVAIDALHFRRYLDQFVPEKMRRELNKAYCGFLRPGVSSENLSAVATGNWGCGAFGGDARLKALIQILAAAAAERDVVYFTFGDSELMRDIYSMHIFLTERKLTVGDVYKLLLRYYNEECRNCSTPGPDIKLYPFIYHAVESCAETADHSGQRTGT
Sequence of Recombinant His-tagged human PARG protein (Q86W56 whole entry): as the sequence (Q86W56 whole entry, the tested form may be a part) above

Row | SMILES | pIC50 [1] | pIC50 [2] | GI50 (NCI-H1650; Homo sapiens, NCI-H1650) | GI50 (NCI-H1650)
1 | CO/N=c1\[nH]c2c(C3=C[C@@H](C)NCC3)cc(S(=O)(=O)NC3(C)CC3)cc2c(=O)n1Cc1cnn(C)c1 [Example 13, (R,E)-2-(methoxyimino)-8-(6-methyl-1,2,3,6-tetrahydropyridin-4-yl)-3-((1-methyl-1H-pyrazol-4-yl)methyl)-N-(1-methylcyclopropyl)-4-oxo-1,2,3,4-tetrahydroquinazoline-6-sulfonamide/(R,E)-2-(methoxyimino)-8-(2-methyl-1,2,3,6-tetrahydropyridin-4-yl)-3-((1-methyl-1H-pyrazol-4-yl)methyl)-N-(1-methylcyclopropyl)-4-oxo-1,2,3,4-tetrahydroquinazoline-6-sulfonamide] | > 7.52 | 7.00 to 7.52 | – | 500 to 2000 nM
2 | CO/N=c1\[nH]c2c(N3CCN(C(=O)C4(C#N)CC4)[C@H](C)C3)cc(S(=O)(=O)NC3(C)CC3)cc2c(=O)n1Cc1cnn(C)c1 [Example 33, (R,E)-8-(4-(1-cyanocyclopropane-1-carbonyl)-3-methylpiperazin-1-yl)-2-(methoxyimino)-3-((1-methyl-1H-pyrazol-4-yl)methyl)-N-(1-methylcyclopropyl)-4-oxo-1,2,3,4-tetrahydroquinazoline-6-sulfonamide] | > 7.52 | > 7.52 | < 500 nM | –
3 | CO/N=c1\[nH]c2c(N3CCN(C(=O)N4CCC(F)(F)C4)[C@H](C)C3)cc(S(=O)(=O)NC3(C)CC3)cc2c(=O)n1Cc1cnn(C)c1 [Example 36, (R,E)-8-(4-(3,3-difluoropyrrolidine-1-carbonyl)-3-methylpiperazin-1-yl)-2-(methoxyimino)-3-((1-methyl-1H-pyrazol-4-yl)methyl)-N-(1-methylcyclopropyl)-4-oxo-1,2,3,4-tetrahydroquinazoline-6-sulfonamide] | > 7.52 | > 7.52 | < 500 nM | –
4 | CO/N=c1\[nH]c2c(Cl)cc(S(=O)(=O)NC3(C)CC3)cc2c(=O)n1Cc1cnn(C)c1 [Example 4, 8-chloro-2-methoxyimino-N-(1-methylcyclopropyl)-3-[(1-methylpyrazol-4-yl)methyl]-4-oxo-1H-quinazoline-6-sulfonamide] | > 7.52 | 7.00 to 7.52 | > 2000 nM | –
5 | CO/N=c1\[nH]c2c(-c3ccc(C(=O)N(C)C)cn3)cc(S(=O)(=O)NC3(C)CC3)cc2c(=O)n1Cc1cnn(C)c1 [Example 20, (E)-6-(2-(methoxyimino)-3-((1-methyl-1H-pyrazol-4-yl)methyl)-6-(N-(1-methylcyclopropyl)sulfamoyl)-4-oxo-1,2,3,4-tetrahydroquinazolin-8-yl)-N,N-dimethylnicotinamide] | > 7.52 | > 7.52 | 500 to 2000 nM | –

Now from value to compound, other results behind:

Row | pIC50 [1] | pIC50 [2] | GI50 (NCI-H1650; Homo sapiens, NCI-H1650) | SMILES | GI50 (NCI-H1650)
6 | > 7.52 | > 7.52 | < 500 nM | CO/N=c1\[nH]c2c(N3CCN(C(=O)C4(N(C)C)CC4)[C@H](C)C3)cc(S(=O)(=O)NC3(C)CC3)cc2c(=O)n1Cc1cnn(C)c1 [Example 34, (R,E)-8-(4-(1-(dimethylamino)cyclopropane-1-carbonyl)-3-methylpiperazin-1-yl)-2-(methoxyimino)-3-((1-methyl-1H-pyrazol-4-yl)methyl)-N-(1-methylcyclopropyl)-4-oxo-1,2,3,4-tetrahydroquinazoline-6-sulfonamide] | –
7 | > 7.52 | > 7.52 | < 500 nM | CO/N=c1\[nH]c2c(-c3ccc(C(=O)N(C)C)c(C)c3)cc(S(=O)(=O)NC3(C)CC3)cc2c(=O)n1Cc1cnn(C)c1 [Example 14, (E)-4-(2-(methoxyimino)-3-((1-methyl-1H-pyrazol-4-yl)methyl)-6-(N-(1-methylcyclopropyl)sulfamoyl)-4-oxo-1,2,3,4-tetrahydroquinazolin-8-yl)-N,N,2-trimethylbenzamide] | –
8 | > 7.52 | 7.00 to 7.52 | > 2000 nM | CON=c1[nH]c2ccc(S(=O)(=O)NC3(C#N)CC3)cc2c(=O)n1Cc1cnn(C)c1 [Example 9, N-(1-cyanocyclopropyl)-2-methoxyimino-3-[(1-methylpyrazol-4-yl)methyl]-4-oxo-1H-quinazoline-6-sulfonamide] | –
